The source of these data is patent US10563243B2, “Bioavailability of metal ions” (priority 2014, dated 2020).

For data set [1] the following is noted: cited from earlier work.
Data set [2] deals with mixture of Actinomyces viscosus, Lactobacillus casei, Streptococcus oralis, Fusobacterium nucleatum, and Veillnoella parvula. The experiment in a line: Zinc/copper bioavailability assay: bacterial viability by resazurin fluorescence, oral bacterial mixture.
Experimental: (This bacterial mixture simulates the complex flora of the oral environment.) Subsequently, the cells were washed and mixed with 5 μg/ml resazurin solution. The fluorescence of the samples was read at 560 nm excitation and at 590 nm emission, and compared to standardized mixtures of viable and non-viable bacteria in order to determine the percentage of the total bacterial population that remained viable after treatment. Each salt was tested at two different concentrations of zinc. The total amount of zinc was consistent between the different salts.
The amount of soluble zinc in each solution was also determined by centrifuging the solutions to remove insoluble zinc, and by testing the supernatant using ICP-AA (inductively coupled plasma with atomic absorption).
Data set [3] has as its system mixture of Escherichia coli (45%), Staphylococcus aureus (45%) and Serratia marcescens (10%). Briefly: Zinc bioavailability assay: bacterial viability by resazurin fluorescence, skin bacterial mixture. The class given is cell-based. The settings on record: Table 5; 0.4% ZnO, 0.8% Zn Citrate, or mix, in deionized water; Triclosan positive control. How it is done: The incubation and detection methods used were as described in Example 1. […] Triclosan was used as a positive antimicrobial control for the experiment.

[4] abbreviates: Table 6, 0.5% elemental copper in deionized water.
The mark [5] stands for this setting: Table 7, 0.05% elemental copper in deionized water.

In the case of Cu2O, the “theoretical solubility in water” value in data set [1] is recorded as “insoluble”.

As to `[Cl][Cu][Cl]` [CuCl2], the “% viable” value was found to be 1.89% in data set [2] (setting [4]) and 11.99% in data set [2] (setting [5]). For the same compound, the “theoretical solubility in water” value in data set [1] is given as 75.7 g/100 ml.

Take `Oc1cc(Cl)ccc1Oc1ccc(Cl)cc1Cl` [Triclosan, reference compound]: the “% viable” value in data set [3] was 18.83%.

As to `[O]=[Cu]` [CuO], the entries for the “% viable” value in data set [2] (setting [4]) and in data set [2] (setting [5]) were 42.73% and 78.67%, respectively.

Turning to `[F][Cu][F]` [CuF2], the “% viable” value in data set [2] (setting [5]) worked out at 17.82%.

Turning to `[O]=[Zn]` [ZnO, zinc oxide], the “% viable” value came out at 23.75% in data set [2] (Table 2, zinc salt solution without added citrate) and 67.23% in data set [3].

Turning to `O=S(=O)([O-])[O-].[Cu+2]` [CuSO4], the “% viable” value in data set [2] (setting [4]) stood at 5.82%; in data set [2] (setting [5]), 13.98%. Moreover, the “theoretical solubility in water” value in data set [1] is recorded as 20 g/100 ml.
